Literature values in patent publication US20260297123A1, “METHODS FOR THE SYNTHESIS OF NUCLEOSIDE ANALOGUES AND NUCLEOSIDES ANALOGUES DERIVED THEREFROM” (SIMON FRASER UNIVERSITY, priority 2023, published 2026).
Where two headings read alike, the source gives them in different places.

Conditions: for pKa, H2O: values <0 and >14 extrapolated; for pKa, H2O (first of several listed) / pKa, (DMSO) (first of several listed): first value listed; for pKa, (DMSO) (second of several listed) / pKa, H2O (second of several listed): second value listed
[1] = DMSO (values in parentheses), values <0 and >35 extrapolated

| SMILES | pKa, (DMSO) [1] | pKa, H2O (H2O) | other results |
| --- | --- | --- | --- |
| Oc1ccc2ccccc2c1 [2-napthol] | (17.1) | – | – |
| CCOC(=O)CC(C)=O | (14.2) | 11 | – |
| O=[N+]([O-])O [HNO3] | – | −1.3 | – |
| O=C(NO)c1ccccc1 | (13.7) | – | pKa, H2O (NH) (H2O, NH): 8.88 (NH) |
| COc1ccc(O)cc1 [p-OMeC6H4OH] | (19.1) | 10.20 | – |
| N#CC1SCCCS1 [drawing 97, X = CN] | (19.1) | – | – |
| O=C(O)O [drawing 16, X = HO] | – | – | pKa, H2O (first of several listed) (H2O): 3.6 |
| O=[N+]([O-])CS(=O)(=O)c1ccccc1 [drawing 107, X = NO2] | (7.1) | – | – |
| O=C(CSc1ccccc1)c1ccccc1 [drawing 82, X = SPh] | (16.9) | – | – |
| O=C(CC(=O)c1ccccc1)c1ccccc1 [drawing 82, X = COPh] | (13.3) | – | – |
| NC(=O)C(F)(F)F [drawing 41, R = CF3] | (17.2) | – | – |
| C1CN2CCN1CC2 [DABCO] | – | – | pKa, (DMSO) (first of several listed): 2.97; pKa, (DMSO) (second of several listed): 8.93; pKa, H2O (first of several listed) (H2O): 2.97; pKa, H2O (second of several listed) (H2O): 8.82 |
| CS(N)(=O)=O [MeSO2NH2] | (17.5) | – | – |
| N#CCC(=O)N1CCCC1 | (17.2) | – | – |
| O=C(O)c1ccc([N+](=O)[O-])cc1 [drawing 16, X = p-O2NC6H4] | – | 3.44 | – |
| C[S+](Cc1ccccc1)c1ccccc1 (centres unmarked) | – | – | pKa, (DMSO) (first of several listed): 16.2; pKa, (DMSO) (second of several listed): 16.3 |
| CO [MeOH] | – | 15.54 | – |
| N#CCC(=O)c1ccccc1 [drawing 82, X = CN] | (10.2) | – | – |
| CN(O)C(=O)c1ccccc1 | (16.5) | – | – |
| C=CC(=O)O [drawing 17, R = H] | – | 4.25 | – |
| CS(=O)(=O)Nc1ccccc1 [MeSO2NHPh] | (12.9) | – | – |
| CCC(=O)CC | – | 19-20 | – |
| O=S(=O)(O)C(F)(F)F [CF3SO3H] | (0.3) | – | – |
| CC(=O)Cc1ccccc1 [drawing 77, X = Ph] | (19.8) | – | – |

| SMILES | pKa, (DMSO) [1] | pKa, H2O (H2O) | other results |
| --- | --- | --- | --- |
| [O]=[Cr](=[O])([OH])[OH] [H2CrO4] | – | – | pKa, H2O (first of several listed) (H2O): −0.98; pKa, H2O (second of several listed) (H2O): 6.50 |
| CC[N+](=O)[O-] [RNO2, R = CH2Me] | (16.7) | – | – |
| Oc1ccccn1 | (17.0) | – | – |
| CCCCS [BuSH] | (17.0) | 10-11 | – |
| O=S(=O)(CSc1ccccc1)C(F)(F)F [PhSCH2X, X = SO2CF3] | (11.0) | – | – |
| NS(=O)(=O)C(F)(F)F [CF3SO2NH2] | (9.7) | – | – |
| CC(=O)OO [CH3CO3H] | – | 8.2 | – |
| NNC(=O)c1ccccc1 | (18.9) | – | – |
| CC(=O)CS(=O)(=O)c1ccccc1 [drawing 107, X = COMe] | (12.5) | – | – |
| O=C1CCCN1 | – | 12 | – |
| O=NO [HNO2] | – | 3.29 | – |
| CN(C)c1cccc2cccc(N(C)C)c12 [Proton Spong ?] | – | – | pKa, (DMSO) (second of several listed): 7.50; pKa, H2O (second of several listed) (H2O): 12.0 |
| O=C(O)c1cccc(Cl)c1 [drawing 16, X = m-ClC6H4] | – | 3.83 | – |
| N#CS [HSCN] | – | 4.00 | – |
| CN(C)c1ccccc1 [PhN^+(Me)2H] | (2.50) | 5.20 | – |
| O=C(O)C[N+](=O)[O-] [drawing 16, X = CH2NO2] | – | 1.68 | – |
| C[N+](=O)[O-] [RNO2, R = CH3] | (17.2) | – | – |
| N#CCS(=O)(=O)c1ccccc1 [drawing 107, X = CN] | (12.0) | – | – |
| C[N+](C)(C)CS(=O)(=O)c1ccccc1 [drawing 107, X = N^+Me3] | (19.4) | – | – |
| OCl [HOCl] | – | 7.5 | – |
| CC(C)(C)O [t-BuOH] | – | 17 | – |
| F [HF] | (15) | 3.17 | – |
| CC(=O)CSc1ccccc1 [drawing 77, X = SPh] | (18.7) | – | – |
| N#CN [NCNH2] | (16.9) | – | – |

| SMILES | pKa, (DMSO) [1] | pKa, H2O (H2O) | other results |
| --- | --- | --- | --- |
| O=C(C[Se]c1ccccc1)c1ccccc1 [drawing 82, X = SePh] | (18.6) | – | – |
| CN(C)c1ccncc1 [DMAP] | – | 9.2 | – |
| CS(=O)(=O)C(F)(F)F | (18.8) | – | – |
| C1=Cc2ccccc2C1 | – | 20 | – |
| NS(=O)(=O)c1ccccc1 [PhSO2NH2] | (16.1) | – | – |
| O=C(C[P+](c1ccccc1)(c1ccccc1)c1ccccc1)c1ccccc1 [Ph3P^+CH2COPh] | (6.2) | – | – |
| C1CCC2=NCCCN2CC1 [DBU] | – | – | pKa, (DMSO) (dmso): (12) (estimate) |
| O=C(Cc1ccccc1)c1ccccc1 [drawing 82, X = Ph] | (17.7) | – | – |
| Br [HBt] | (0.9) | – | – |
| CCP(CC)CC [Et3P^+H] | – | 9.1 | – |
| O=C(CS(=O)(=O)c1ccccc1)c1ccccc1 [drawing 82, X = SO2Ph] | (11.4) | – | – |
| O=C(C[N+](=O)[O-])c1ccccc1 [drawing 82, X = NO2] | (7.7) | – | – |
| O=[N+]([O-])CCc1ccccc1 [RNO2, R = CH2Bn] | (16.2) | – | – |
| CC(=O)CC(=O)c1ccccc1 [drawing 82, X = COCH3] | (12.7) | – | – |
| CCC(=O)Nc1ccccc1 | – | – | pKa, (DMSO) (dmso): (21.6) |
| OB(O)O [B(OH)3] | – | 9.23 | – |
| OO [HOOH] | – | 11.6 | – |
| N#CC[P+](c1ccccc1)(c1ccccc1)c1ccccc1 [Ph3P^+CH2CN] | (7.0) | – | – |
| O=[N+]([O-])c1cccc(O)c1 [m-C2NC6H4OH] | – | 8.35 | – |
| CC(=O)C(C)(C)C | – | – | pKa, (DMSO) (dmso): (27.7) |
| CC(=O)CC(C)=O [drawing 77, X = COCH3] | (13.3) | 9 | – |
| CC(=O)CS(=O)(=O)c1ccccc1 [drawing 77, X = SO2Ph] | (15.1) | – | – |
| O=C(O)C(F)(F)F [drawing 16, X = CF3] | – | −0.25 | – |
| O=S(O)O [H2SO3] | – | – | pKa, H2O (first of several listed) (H2O): 1.9; pKa, H2O (second of several listed) (H2O): 7.21 |

| SMILES | pKa, (DMSO) [1] | pKa, H2O (H2O) | other results |
| --- | --- | --- | --- |
| CC(C)O [i-PrOH] | – | 16.5 | – |
| OC(C(F)(F)F)C(F)(F)F [(CF3)2CHOH] | (17.9) | – | – |
| NNS(=O)(=O)c1ccccc1 [PhSO2NHNH2] | (17.2) | – | – |
| COO [MeOOH] | – | 11.5 | – |
| C[N+](C)(C)c1ccccc1C(=O)O [drawing 16, X = o-(CH3)3N^+C6H4] | – | 1.37 | – |
| CC(C)[N+](=O)[O-] [RNO2, R = CHMe2] | (16.9) | – | – |
| NCCN | – | – | pKa, H2O (first of several listed) (H2O): 6.90; pKa, H2O (second of several listed) (H2O): 9.95 |
| ON=C(c1ccccc1)c1ccccc1 | – | 11.3 | – |
| O=[N+]([O-])CSc1ccccc1 [PhSCH2X, X = NO2] | (11.8) | – | – |
| O=C(O)c1cccc([N+](=O)[O-])c1 [drawing 16, X = m-O2NC6H4] | – | 2.45 | – |
| O=[N+]([O-])Cc1ccccc1 [RNO2, R = CH2Ph] | (12.2) | – | – |
| O=[N+]([O-])c1ccc(O)cc1 [p-O2NC6H4OH] | (10.8) | 7.14 | – |
| OCC(F)(F)F [CF3CH2OH] | – | 12.5 | – |
| CC(=O)NC(C)=O [Ac2NH] | (17.9) | – | – |
| CN(C)C(=N)N(C)C | (13.5) | – | – |
| CCOC(=O)C[N+](C)(C)C | (20.0) | – | – |
| c1ccc(Nc2ccccc2)cc1 [Ph2N^+H2] | – | 0.78 | – |
| O=C(O)C(Cl)(Cl)Cl [drawing 16, X = CCl3] | – | 0.65 | – |
| C[N+](C)(C)CC(=O)c1ccccc1 [drawing 82, X = N^+Me3] | (14.6) | – | – |
| C[N+](C)(C)c1ccc(C(=O)O)cc1 [drawing 16, X = p-(CH3)3N^+C6H4] | – | 3.43 | – |
| Nc1ccc2ccccc2c1 [2-naphthal-N^+H3] | – | 4.16 | – |
| O=C1NC(=O)c2ccccc21 | – | 6.30 | – |
